In US12065468B2, “Heme-binding small peptide” (priority 2021, dated 2024):

Tested on: S. meliloti
Assay: Radioactive 55Fe uptake assay
Assay type: cell-based, Sinorhizobium meliloti
Settings: 2 μM, medium with sufficient iron
Protocol: Iron uptake assay: Radioactive ^55Fe uptake assays were performed as described previously^66 with some modifications. Cells were grown in LB to an O.D.600 nm of 0.2. 20 ml cultures were then spun down, and suspended in 20 ml minimal media with 5 μM FeSO4 for 1 hour. 2 μM NCR247 and then 100 μM sodium ascorbate was added, and cells were incubated for additional 30 mins. At time 0, 1 μM^55FeCl3 mixed with ascorbate was added. At given time points, 1 ml aliquots were taken and quenched in 3 ml of ice-cold quench buffer (0.1M Tris, 1 mM ascorbate, and 100 μM FeSO4, pH 6.0). The cells were collected immediately after quenching on 0.45-μm filters, presoaked in quench buffer using a Millipore sigma 1225 vacuum filtration unit. The radioactive ^55Fe content of the filters with cells was counted using a scintillation counter. Internalized ^55Fe levels were normalized to the protein levels in the cell.

## RNGCIVDPRCPYQQCRRPLYCRRR [NCR247]
  uptake of 55Fe: markedly increased the import of ^55Fe
